Experimental data reported in PubChem BioAssay (NCI).
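The compound was tested at five concentrations on cells cultured in 96-well plates, with a 48-hour exposure period. TGI: total growth inhibition.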

Test system: A549 NSCLC
Assay: NCI tumour cell line growth inhibition, 48 h

Structure (SMILES): CC(=O)OCC1OC(OCCCCCCO)C(OC(C)=O)C(OC(C)=O)C1OC(C)=O (stereo unspecified)
- TGI: > 100 µM
